Article PMC6060874, “Alanine scan of sialorphin and its hybrids with opiorphin: synthesis, molecular modelling and effect on enkephalins degradation” (Amino Acids, 2018)

How the values were obtained:
NEP = test: Degradation of Met-enkephalin incubated with NEP alone (without inhibitor); type: in vitro ADME, porcine; conditions: pig, NEP enzyme extracted from porcine kidney, Met-enkephalin 0.0413 mM, NEP 5.687 nM, Tris–HCl 50 mM pH 7.4, 37 °C, 0–120 min, RP-HPLC, mean ± SEM, triplicate, read-out: t1/2, half-life of Met-enkephalin incubated with NEP alone
Protocol: (§1) The degradation studies were performed using the NEP enzyme extracted from porcine kidney, acquired from Merck (Warsaw, Poland). Solutions of Met-enkephalin, NEP and inhibitors were prepared by dissolving them in a Tris–HCl buffer (50 mM, pH 7.4). In investigated samples, the concentrations of Met-enkephalin, inhibitors and NEP were, respectively, 0.0413 mM, 0.156 mM and 5.687 nM. The reaction was initiated by addition of enzyme to a solution-containing Met-enkephalin and inhibitor. The samples consisting of the enzyme, Met-enkephalin and inhibitors were incubated over 0, 30, 60, 90, 120 min at 37 °C in a final volume of 300 μL. The reaction was stopped at a predetermined time by placing the tube on ice and acidifying with 30 μL of a 1 M aqueous HCl solution. The aliquots were centrifuged at 14,500 rpm for 20 min. The supernatants were filtered through Millipore Millex-GV syringe filters with 0.22 μm pores (Merck, Warsaw, Poland) and analysed by RP-HPLC on a Phenomenex Gemini-NX C18 column (5 μm, 4.6 mm × 150 mm) using a linear gradient of 3–50% of [B] for 8 min at a flow rate of 2.5 ml/min. Two solvent systems were used: 0.1% TFA in water [A] and 0.1% TFA in acetonitrile [B]. The rate constants of degradation (k) and degradation half-lives (t1/2) were calculated as described elsewhere (Kamysz et al. [2016]; Perlikowska et al. [2012]). All measurements were performed in triplicate. […]

[1] = system: NEP enzyme extracted from porcine kidney; test: as above; type: in vitro ADME; conditions: printed value is 1000 × k, Met-enkephalin 0.0413 mM, NEP 5.687 nM, Tris–HCl 50 mM pH 7.4, 37 °C, 0–120 min, RP-HPLC, mean ± SEM, triplicate
Protocol: as §1

SMILES: CSCC[C@H](NC(=O)[C@H](Cc1ccccc1)NC(=O)CNC(=O)CNC(=O)[C@@H](N)Cc1ccc(O)cc1)C(=O)O [Met-enkephalin, Met-enkephalin (Tyr–Gly–Gly–Phe–Met)]
- half-life (NEP): 27 ± 1 min
- 1000 × k, degradation rate of Met-enkephalin incubated with NEP alone [1]: 25.3 ± 1.0 min⁻¹
